# Experimental data: US10537643B2, “Chemoembolization composition comprising anti-angiogenic agents” (CENTRE HOSPITALIER UNIVERSITAIRE VAUDOIS, priority 2010, dated 2020)
# How the values were obtained:
# [1] = Stability / precipitation of sunitinib solutions; type: physicochemical
# Source text: However, preparing drug-loaded beads is not a straightforward procedure, especially if they should be loaded with chemotherapeutic agents of low solubility in aqueous media. This solubility can be insufficient to reach useful therapeutic dose, such as for sorafenib tosylate. In the case where apparent solubility is sufficient to reach useful therapeutic dose, it may appear that some delayed precipitation occurs; making impossible the utilization of such preparation in a clinic setup. For example, sunitinib base or malate can be dissolved in standard media used for loading anthracycline drugs, such as doxorubicine. […] In addition, no liquid oral or parenteral solution of any sunitinib salt is commercially available, that could be used to load DEBs. […] WO 2007/090897 further discloses a method for loading beads with water insoluble chemotherapeutic agents by using organic solvents. However, such an approach is not adequate for extemporaneous preparation by the medical staff.
# Advantageously, this solution is isotonic to human plasma and it is safe for the parenteral applications. Noteworthy, the sugar is not limited to glucose. Other sugars or polyol could be used such as sucrose, dextran, mannitol, sorbitol or trehalose.
# [2] = sunitinib per os, unique dose of 6 mg, rabbit; according to previous pharmacological studies (FDA); cited from earlier work
# [3] = cited from earlier work
# [4] = Liver enzymes after administration in healthy rabbits; conditions: sunitinib p.o., unique dose of 6 mg, healthy rabbit
# Protocol: Adult healhy male New Zealand White Rabbits (n=12) weighing between 3.2-2.8 kgs were used.
# DC Beads measuring between 100-300 μm (Biocompatibles) were used.
# Animals were separated in 3 groups.
# Liver enzymes were measured from blood samples obtained by a catheter placed in the vein of the rabbit's ear, immediately before embolization or oral administration of the drug and 6 hours.
"stability of the drug ([1]; HPLC analysis, sunitinib loaded DC beads preparation)","stability of sunitinib solution (precipitation) ([1]; in presence of sugar, 5% glucose, in contrast to saline or hydrochloric acid solutions)",liver enzymes [4],SMILES,therapeutic plasmatic concentration (Cmax) [2],plasma concentrations ([3]; approved starting oral dose 50 mg/day),patients with serious (grade 3 or 4) adverse events ([3]; oral sunitinib therapy),patients requiring dose reductions ([3]; patients treated for RCC),precipitation in solution ([1]; standard media used for loading anthracycline drugs)
verified,"stable, without any precipitation",did not cause any alteration,CCN(CC)CCNC(=O)c1c(C)[nH]c(/C=C2\C(=O)Nc3ccc(F)cc32)c1C [sunitinib],45 to 55 ng/mL,at least 50 ng/ml,≤ 10%,50%,
,,,CCN(CC)CCNC(=O)c1c(C)[nH]c(/C=C2\C(=O)Nc3ccc(F)cc32)c1C [sunitinib malate],,,,,precipitate within a short period of time
